Measured values: patent US20080221084A1, “METHOD FOR REDUCING INFARCTION USING VASOPRESSIN ANTAGONIST COMPOUNDS, AND COMPOSITIONS AND COMBINATIONS THEREFOR” (OTSUKA PHARMACEUTICAL CO., LTD., priority 2006, published 2008)

Experiments:
[1] = system: regional cardiac ischemia/reperfusion in rat heart; test: 20 minutes regional cardiac ischemia and 3 hours reperfusion in hyponatremic rats: myocardial infarction, risk size, hemodynamics; type: in vivo, rat (male Sprague-Dawley); settings: 20 min regional ischemia, 3 h reperfusion on day 14, compared with saline-infused or vehicle-treated rats, TTC staining
Source text: The condition of hypotonic hyponatremia was created by infusing a selective vasopressin V2 agonist, DDAVP, into rats using an osmotic minipump implanted subcutaneously for 14 days in animals with access to only liquid food (a model of SIADH: syndrome of inappropriate antidiuretic hormone secretion). Control rats had the same surgical implantation of an osmotic minipump filled with saline. Rats either received a daily oral administration of tolvaptan or vehicle in an escalating dosing regime. At the end of the 14-day period, rats were subjected to 20 minutes of regional cardiac ischemia and 3 hours of reperfusion, and myocardial infarction was determined. At the final day of the study (day 14), rats were anesthetized, and the chest was open. Hearts were subjected to 20 minutes of regional ischemia followed by 3 hours of reperfusion. On day 14, rats were anesthetized with pentobarbital (30 mg/kg) by an intraperitoneal injection. Once anesthesia was induced, a tracheotomy was performed, and the trachea was cannulated and the animal was attached to a respirator. An oxygen supplement was fed into the tracheal line to maintain the pO2 above 100 mmHg. A cannula was inserted into the right carotid artery to monitor blood pressure and heart rate. The heart was exposed through a left thoracotomy in the fourth intercostal space, and the pericardium opened. A snare was placed around a major branch of the left coronary artery of the animal using a 5-0 suture. The suture ends were passed through a small segment of pliable polyethylene tubing to form a snare. Regional ischemia was induced by pulling the silk tightly through the tubing and clamping the tube with a hemostat. Experiments involved 20 minutes of ischemia and 3 hr reperfusion, which was achieved by releasing the snare. Myocardial ischemia and reperfusion were confirmed by the observation of regional cyanosis and hyperemia, respectively. […] Infarct size was determined by planimetry and expressed as a percentage of risk area infarcted. Data were expressed as the Mean ±SD (standard deviation). […]

[2] = system: rats with hypotonic hyponatremia (model of SIADH); test: DDAVP-induced hypotonic hyponatremia in rats (model of SIADH): plasma sodium and osmolarity; type: in vivo, rat (male Sprague-Dawley); settings: day 14, end of experiment; DDAVP infused 1 ng/h s.c. for 14 days, liquid diet; Mean ±SD
Source text: The condition of hypotonic hyponatremia was created by infusing a selective vasopressin V2 agonist, DDAVP, into rats using an osmotic minipump implanted subcutaneously for 14 days in animals with access to only liquid food (a model of SIADH: syndrome of inappropriate antidiuretic hormone secretion). […] Rats either received a daily oral administration of tolvaptan or vehicle in an escalating dosing regime.
Tolvaptan was supplied as a spray-dried formulation, which is a mixture of tolvaptan (free form) and hydroxypropylcellulose (HPC-SL) at a ratio of 2:1. Therefore, the amount of tolvaptan (spray-dried form) was 1.5 times that of tolvaptan (free form). Tolvaptan was suspended in 1% hydroxypropylmethylcellulose solution.
The V2 agonist DDAVP ([deamino-Cys1, D-Arg8]-vasopressin was dissolved in saline (2 μg/mL).
Male Sprague-Dawley rats weighing 150-175 grams were used. Rats had access to feed and tap water. From day −3 (see the timeline in FIG. 1), rats were fed with a customized liquid food (RD-LD89 All-Purpose Liquid Diet Premix, Research Diets, Inc, New Brunswick, N.J.) and no additional food or water was provided. The liquid diet was mixed with water according to manufacturer's instructions.
Rats were acclimated for 3 days to liquid food before the study. Hyponatremia was induced by continuous subcutaneous infusion of 1 ng/h of DDAVP per animal using osmotic minipumps (infusion rate: 0.5 μL/h, ALZET model 2002, DURECT Corporation, Cupertino, Calif.) for 14 days (see FIG. 1). On day 0 when the osmotic minipump was implanted, rats were anesthetized by an intraperitoneal injection of a mixture of ketamine (40 mg/kg) and xylazine (5 mg/kg). The following procedure of implanting minipumps was performed using aseptic techniques. An area 4 cm long and 3 cm wide on the back of the animal (slightly posterior to the scapulae) was shaved and cleaned. A 1 cm cross mid-scapular incision was made. A hemostat was inserted into the incision and a pocket for the pump was created by opening and closing the jaw of the hemostat to spread the subcutaneous tissue. The pump (length 3 cm, diameter 0.7 cm and 0.4 grams) was inserted into the pocket, delivery portal first. The wound was closed with wound clips, and animals were placed on a heating pad for recovery, and eventually returned back to the cage.
On day 2 after the surgery, animals were switched to a nutritionally complete liquid food diet containing 14% dextrose (see FIG. 1). No additional water or solid food was provided.
Starting from day 4, an escalating dosing regime of tolvaptan or vehicle was used from 0.25 mg/kg to 10 mg/kg daily.

| SMILES | myocardial infarct size (percentage of risk area infarcted) [1] | myocardial infarct size (percentage of risk area infarcted) ([1]; listed as tolvaptan) | plasma osmolarity [2] [mOsm/kg] | plasma sodium [2] [mmol/L] |
| --- | --- | --- | --- | --- |
| Cc1ccccc1C(=O)Nc1ccc(C(=O)N2CCCC(O)c3cc(Cl)ccc32)c(C)c1 (stereo not shown) [Tolvaptan, 7-chloro-5-hydroxy-1-[2-methyl-4-(2-methylbenzoyl-amino)benzoyl]-2,3,4,5-tetrahydro-1H-benzazepine] | reduced the infarct size in DDAVP-infused rats to a level similar to that in saline-infused rats | much smaller degree as compared with that in vehicle-treated rats | 304±8 | 140 ± 3 |
| NC(=O)CC[C@@H]1NC(=O)[C@H](Cc2ccccc2)NC(=O)[C@H](Cc2ccc(O)cc2)NC(=O)CCSSC[C@@H](C(=O)N2CCC[C@H]2C(=O)N[C@H](CCCN=C(N)N)C(=O)NCC(N)=O)NC(=O)[C@H](CC(N)=O)NC1=O [DDAVP, [deamino-Cys1, D-Arg8]-vasopressin] | more than double | – | 264±6 | 114 ± 7 |
